Assay results published in patent publication US20210369684A1 (MOUNT TAM THERAPEUTICS, INC., priority 2018, published 2021).
“And” between values parts separate entries of the source, which are not always exact repeats. Identical values can stand only once.

How the values were obtained:
[1] = Whole blood concentrations after IP administration to mice (LC-MS/MS); type: in vivo, mouse; conditions: 10 mg/kg IP QD x 3 days; for Formula II Concentrations in Mouse Whole Blood: individual animals 10, 11, 12
Method: Shown below are whole blood concentrations following administration of the compound of Formula II to mice. The compound of Formula II was administered to mice at 2 mg/kg or 10 mg/kg for three days and the concentration of the compound in whole blood determined. These determinations were made using protein precipitation, liquid chromatography (LC), and mass spectrometry (MS/MS). Ten μl aliquots of whole blood and matrix calibration standards were distributed in a 96-well plate; 10 μl aliquots of blank matrix for matrix blanks and control blanks were included as controls. Ten μl of water was added to each sample followed by vortexing. One hundred sixty […] of internal standard was added to each sample except the matrix blanks; 160 μl 70:30 water:acetonitrile (ACN) was added to matrix blanks. This was followed by a […]. One hundred fifty μl of the resultant supernatant was then transferred to a new 96-well plate and the samples blown to dryness at 35° C. The resultant product was then reconstituted with 90 μl ACN.

[2] = tested on: 6-OHDA injected mice; experiment: 6-OHDA cylinder test (motor performance, contralateral touches); type: in vivo, mouse; conditions: 10 mg/kg, FIG. 2B
Method: An analysis of the neuroprotective effects of the compound of Formula II on motor performance was performed using the 6-OHDA cylinder test (FIG. 2A) which evaluates spontaneous motor changes associated with dopamine depletion in the striatum of 6-OHDA injected mice. […] Control mice were administered the vehicle control only. […] The data is presented in FIG. 2B as mean and standard error of the mean (SEM). Statistical analyses as compared to baseline mice were performed using the one-way Anova test (*: p<0.05; n.s.: not significant). […] Data is presented as mean and SEM. Statistical analyses were performed using One-way Anova test (*: p<0.05; ***: p<0.001. n.s.: not significant.)

[3] = molecular target: T1, TORC2 (Homo sapiens, UniProt P42345+P62942); experiment: IC50 in PC3 cells, TORC2; type: cell-based
T1 construct: endogenous in cells; host or cells: PC3 cells

[4] = molecular target: T2, TORC1 (Homo sapiens, UniProt P42345+P62942); experiment: IC50 in PC3 cells, TORC1; type: cell-based
T2 construct: endogenous in cells; host or cells: PC3 cells

[5] = Brain concentrations after IP administration to mice (LC-MS/MS); type: in vivo, mouse; conditions: for Formula II Concentrations in Mouse Brain / Formula II Concentrations in Mouse Brain, Mean: Day 3, 24.0 h
Method: To carry out these assays using brain homogenates, 20 uL of samples and matrix calibration standards into wells of a 96-well plate, and 10 uL of blank matrix allocated for matrix blanks and control blanks. 160 uL internal standard was then added to all samples except matrix blanks, and 160 uL ACN added to matrix blanks. Samples were then vortexed for 5 minutes and centrifuge for 5 minutes at >3500 rpm. 150 uL of the supernatant was then transferred to a new 96-well plate, and the plates blown down to dryness at 35° C., reconstituted with 90 uL of 70:30 water:acetonitrile (ACN) solution, covered and vortexed prior to analysis. LC and MS conditions were the same as described above for the whole blood analysis. […] The compound of Formula II was administered to mice at 2 mg/kg or 10 mg/kg for three days and the concentration of the compound in brain determined.

[6] = tested on: 6-OHDA injected mice; experiment: Anti-TH immunohistochemistry, 6-OHDA-induced neuronal loss (TH-positive somas in SN); type: in vivo, mouse
Method: Immunohistochemistry analysis using anti-tyrosine hydroxylase (TH) antibody was also performed to quantify 6-OHDA-induced neuronal loss in mice injected with 6-OHDA and non-injected (control) sides of the brain. […] FIG. 4B presents the mean and standard error of the mean (SEM) as well as statistical analysis of the results.

## CO[C@H]1C[C@@H]2CC[C@@H](C)[C@@](O)(C2)C(=O)C(=O)N2CCCC[C@H]2C(=O)O[C@H]([C@H](C)C[C@H]2C[C@H]3C[C@@H]2C[C@@H]3O)CC(=O)[C@H](C)/C=C(\C)[C@@H](O)[C@@H](OC)C(=O)[C@H](C)C[C@H](C)/C=C/C=C/C=C/1C [Formula II, C37-[(1R,2S,4R,5S)-5-hyhroxybicyclo[2.2.1]heptane] rapamycin]
[1]; Day 1, 6.00 h, mean
  Formula II Concentrations in Mouse Whole Blood, Mean: 1165 ng/mL
[1]; Day 1, 24.0 h
  Formula II Concentrations in Mouse Whole Blood: 222 ng/mL and 181 ng/mL and 210 ng/mL
[1]; Day 1, 24.0 h, mean
  Formula II Concentrations in Mouse Whole Blood, Mean: 204 ng/mL
[1]; Day 2, 1.00 h
  Formula II Concentrations in Mouse Whole Blood: 3410 ng/mL and 2970 ng/mL and 546 ng/mL
[1]; Day 2, 1.00 h, mean
  Formula II Concentrations in Mouse Whole Blood, Mean: 2309 ng/mL
[1]; Day 2, 2.00 h
  Formula II Concentrations in Mouse Whole Blood: 3670 ng/mL and 3930 ng/mL and 2370 ng/mL
[1]; Day 2, 2.00 h, mean
  Formula II Concentrations in Mouse Whole Blood, Mean: 3323 ng/mL
[1]; Day 2, 6.00 h
  Formula II Concentrations in Mouse Whole Blood: 2770 ng/mL and 3390 ng/mL and 609 ng/mL
[1]; Day 2, 6.00 h, mean
  Formula II Concentrations in Mouse Whole Blood, Mean: 2256 ng/mL
[1]; Day 2, 24.0 h
  Formula II Concentrations in Mouse Whole Blood: 123 ng/mL and 336 ng/mL and 78.0 ng/mL
[1]; Day 2, 24.0 h, mean
  Formula II Concentrations in Mouse Whole Blood, Mean: 179 ng/mL
[1]; Day 3, 1.00 h
  Formula II Concentrations in Mouse Whole Blood: AQL and 3420 ng/mL and 987 ng/mL
[1]; Day 3, 1.00 h, mean (animal 10 AQL)
  Formula II Concentrations in Mouse Whole Blood, Mean: 2204 ng/mL
[1]; Day 3, 2.00 h
  Formula II Concentrations in Mouse Whole Blood: 5170 ng/mL and 3650 ng/mL and 777 ng/mL
[1]; Day 3, 2.00 h, mean
  Formula II Concentrations in Mouse Whole Blood, Mean: 3199 ng/mL
[1]; Day 3, 6.00 h
  Formula II Concentrations in Mouse Whole Blood: 3330 ng/mL and 2890 ng/mL and 730 ng/mL
[1]; Day 3, 6.00 h, mean
  Formula II Concentrations in Mouse Whole Blood, Mean: 2317 ng/mL
[1]; Day 3, 24.0 h
  Formula II Concentrations in Mouse Whole Blood: 223 ng/mL and 323 ng/mL and 124 ng/mL
[1]; Day 3, 24.0 h, mean
  Formula II Concentrations in Mouse Whole Blood, Mean: 223 ng/mL
[2]
  number of touches compared with rapamycin and vehicle control: clearly outperformed rapamycin and the vehicle control
[2]; three days pre-treatment before 6-OHDA (80 μg)
  contralateral touches, difference from baseline (one-way Anova): non-significant difference from baseline
[3]
  IC50: 5 nM
[4]
  IC50: 0.099 nM
[4]; from IC50 values
  TORC1/TORC2 Selectivity: 50x
[5]; 2 mg/kg or 10 mg/kg IP QD for three days, mice
  concentrations in brain over time (in words): sufficient concentrations in brain overtime
[5]; Group 1, 2 mg/kg IP QD x 3 days, individual animals 7, 8, 9
  Formula II Concentrations in Mouse Brain: 33.7 ng/g and 27.6 ng/g and 31.4 ng/g
[5]; Group 1, 2 mg/kg IP QD x 3 days
  Formula II Concentrations in Mouse Brain, Mean: 30.9 ng/g
[5]; Group 2, 10 mg/kg IP QD x 3 days, individual animals 10, 11, 12
  Formula II Concentrations in Mouse Brain: 121 ng/g and 136 ng/g and 224 ng/g
[5]; Group 2, 10 mg/kg IP QD x 3 days
  Formula II Concentrations in Mouse Brain, Mean: 160 ng/g
[6]; 6-OHDA injected mice, FIG. 4A
  6-OHDA-induced neuronal loss (TH-positive somas, SN) compared with vehicle control: decreased 6-OHDA-induced neuronal loss as compared to vehicle control
[6]; one-way ANOVA, FIG. 4B
  TH+ neuronal loss, p versus vehicle control: < 0.01
